Results published in patent EP0768085A1, “ANTIBACTERIAL AGENT” (DAIICHI PHARMACEUTICAL CO., LTD., priority 1994, dated 1996).
In brackets after ≈: the same amount, converted by molar mass.

Columns and labels:
Type in all cases: cell-based
[1] = test system: Staphylococcus aureus TI-1; assay: Antibacterial activity (IC), broth microplate as in Example 4 (Example 5, Table 40); conditions: TI1, 18 h
Description: (§1) A suitable amount of a sample was dissolved in dimethylsulfoxide (DMSO), and the resultant solution was diluted with the same amount of sterilized distilled water to prepare a bulk sample of 1,000 µg/ml. Mueller-Hinton broth (product of DIFCO) was dispensed into each well of 96-well microplate. Thereafter, the bulk specimen was added to the first well of a row, and successively diluted (10-fold each time) with sterilized distilled water. Separately, a bacterial cell suspension for the test (Staphylococcus aureus 209-P) which had been cultured in the above-mentioned broth overnight at 37°C was inoculated to each well so that the final inoculation amount of 10^6 CFU/ml was attained. The final concentrations of the samples were 100, 10, and 1 µg/ml.
(§2) The antibacterial action was evaluated by the inhibitory concentration (hereinafter abbreviated as IC) at which propagation of the bacteria cultured at 37°C for 18 hours was inhibited. Inhibition was determined by the turbidity of the medium. The expressions "IC≤100", "≤10", and "≤1" indicate that MIC-equivalent values obtained at the succesive […] dilution of the sample are 100-10 µg/ml, 10-1 µg/ml, and not more than 1 µg/ml, respectively. […] (In the subsequent Examples, the same rule applies correspondingly.) Table 39
In a manner similar to that described in Example 4, antibacterial activity of the invention compound was determined. The bacterium used for the test was Staphylococcus aureus TI-1.

[2] = test system: Bordetella bronchiseptica (SM2-4); assay: Antibacterial activity (IC), broth microplate as in Example 4 (Example 7, Table 42); conditions: 18 h
Description: as §1, §2
In a manner similar to that described in Example 4, antibacterial activity of the invention compound was determined. The bacterium used for the test was Bordetella bronchiseptica (SM2-4).

[3] = test system: Staphylococcus aureus 209-P; assay: Antibacterial activity (IC), Mueller-Hinton broth, 96-well microplate (Example 4, Table 39); conditions: 37°C, 18 hours
Description: as §1, §2

[4] = test system: Pasteurella multocida (Kobe-6); assay: Antibacterial activity (IC), broth microplate as in Example 4 (Example 6, Table 41); conditions: 18 h, origin pig
Description: as §1, §2
In a manner similar to that described in Example 4, antibacterial activity of the invention compound was determined. The bacterium used for the test was Pasteurella Kobe-6 (origin: pig; Pasteurella multocida).

[5] = test system: Staphylococcus aureus (209-P); assay: Antibacterial activity (IC), agar as in Example 8 (Example 15, Table 48); conditions: 18 h
Description: as §2
(§3) A suitable amount of a sample was dissolved in dimethylsulfoxide (DMSO), after which the resulting solution was diluted with the same amount of sterilized distilled water to prepare a bulk sample of 1,000 µg/ml. Separately, a bacterial liquid for the test (methicillin-resistant Staphylococcus aureus (MRSA) isolated from humans) which had been cultured in Mueller-Hinton broth (product of DIFCO) was prepared and inoculated to a Mueller-Hinton agar (product of DIFCO) containing the sample so that the final inoculation amount of 10^6 CFU/ml was achieved. The final concentrations of the samples were 100, 10, and 1 µg/ml.
(§4) After culturing at 37°C for 18 hours, the antibacterial activity was evaluated in terms of IC in a manner similar to that described in Example 4.
The bacterium used for the test was Staphylococcus aureus (209-P).

Enterococcus from fish = assay: Antibacterial activity (IC), agar as in Example 8, media with 1.5% NaCl, 25°C (Example 20, Tables 53-55); conditions: for MIC: Enterococcus Seriolicida SE94-002
Description: as §2, §3, §4
(§5) In a manner similar to that described in Example 8, antibacterial activity of a variety of ketonitrile derivatives shown in Tables 53-55 was measured. The bacteria used for the test were Enterococcus and Pasteurella from fish. The culture conditions were such that the media contained 1.5% NaCl, and the culture temperature was 25°C.

Pasteurella from fish = assay: as above; conditions: for MIC: Pasteurella piscicida KP94-02
Description: as §2, §3, §4, §5

[6] = test system: methicillin-resistant Staphylococcus aureus (MRSA) from humans; assay: Antibacterial activity (IC), agar as in Example 8 (Example 19, Table 52); conditions: 18 h
Description: as §2, §3, §4
In a manner similar to that described in Example 8, antibacterial activity of a variety of ketonitrile derivatives shown in Table 52 was measured. The bacterium used for the test was methicillin-resistant Staphylococcus aureus (MRSA) from humans.

[7] = test system: Pasteurella multocida (Kobe-6); assay: Antibacterial activity (IC), agar as in Example 8 (Example 17, Table 50); conditions: 18 h, origin pig
Description: as §2, §3, §4
In a manner similar to that described in Example 8, antibacterial activity of the invention compound was determined. The bacterium used for the test was Pasteurella Kobe-6 (origin: pig, Pasteurella multocida).

[8] = test system: Streptococcus aureus (TI-1); assay: Antibacterial activity (IC), agar as in Example 8 (Example 16, Table 49); conditions: 18 h
Description: as §2, §3, §4
In a manner similar to that described in Example 8, antibacterial activity of the invention compound was determined. The bacterium used for the test was […] aureus (TI-1).

[9] = Enterococcus Seriolicida KG86050
[10] = Enterococcus Seriolicida MS89060
[11] = Enterococcus Seriolicida MS89064
[12] = Enterococcus Seriolicida MS89066
[13] = Enterococcus Seriolicida MS89068
[14] = Enterococcus Seriolicida SE94-001
[15] = Enterococcus Seriolicida SE94-003
[16] = Enterococcus Seriolicida SE94-004
[17] = Enterococcus Seriolicida SE94-005

SMILES	MIC [1] [µg/mL]	MIC [3] [µg/mL]	MIC [4] [µg/mL]	MIC [5] [µg/mL]	IC (Enterococcus from fish; Enterococcus Seriolicida HI)	IC (Enterococcus from fish; [9])	IC (Enterococcus from fish; [10])	IC (Enterococcus from fish; [11])	IC (Enterococcus from fish; [12])	IC (Enterococcus from fish; [13])	IC (Enterococcus from fish; [14])	MIC (Enterococcus from fish) [µg/mL]	IC (Enterococcus from fish; [15])	IC (Enterococcus from fish; [16])	IC (Enterococcus from fish; [17])	MIC (Pasteurella from fish) [µg/mL]	IC (Pasteurella from fish; Pasteurella piscicida KP94-04)	IC (Pasteurella from fish; Pasteurella piscicida KP94-05)	IC (Pasteurella from fish; Pasteurella piscicida KP94-06)	MIC ([6]; MRSA strain 891179) [µg/mL]	also measured
Cc1cccc(C(C#N)C(=O)C(C)Oc2ccc(Oc3ncc(C(F)(F)F)cc3Cl)cc2)c1 (stereo not shown) [compound 16]	1 to 10 (≈ 2.11 to 21.1 µM)	10 to 100 (≈ 21.1 to 211 µM)	10 to 100 (≈ 21.1 to 211 µM)	–	–	–	–	–	–	–	–	–	–	–	–	–	–	–	–	–	MIC [2]: 10 to 100 µg/mL (≈ 21.1 to 211 µM)
COc1cc(Oc2ccc(C(F)(F)F)cc2Cl)cc(OC(C)C(=O)C(C#N)c2ccc(Cl)c(Cl)c2)c1 (stereo not shown) [compound 209]	–	–	–	1 to 10 (≈ 1.79 to 17.9 µM)	≤10 (10-1 µg/ml)	≤10 (10-1 µg/ml)	≤10 (10-1 µg/ml)	≤10 (10-1 µg/ml)	≤10 (10-1 µg/ml)	≤10 (10-1 µg/ml)	≤10 (10-1 µg/ml)	1 to 10 (≈ 1.79 to 17.9 µM)	≤10 (10-1 µg/ml)	≤10 (10-1 µg/ml)	≤10 (10-1 µg/ml)	10 to 100 (≈ 17.9 to 179 µM)	≤100 (MIC-equivalent values obtained at the succesive 2-fold dilution of the sample are 100-10 µg/ml)	≤100 (MIC-equivalent values obtained at the succesive 2-fold dilution of the sample are 100-10 µg/ml)	≤100 (MIC-equivalent values obtained at the succesive 2-fold dilution of the sample are 100-10 µg/ml)	1 to 10 (≈ 1.79 to 17.9 µM)	MIC ([6]; MRSA strain 891185): 1 to 10 µg/mL (≈ 1.79 to 17.9 µM); MIC ([6]; MRSA strain 891187): 1 to 10 µg/mL (≈ 1.79 to 17.9 µM); MIC ([6]; MRSA strain 891192): 1 to 10 µg/mL (≈ 1.79 to 17.9 µM); MIC ([6]; MRSA strain 900048): 1 to 10 µg/mL (≈ 1.79 to 17.9 µM); MIC ([6]; MRSA strain 900056): 1 to 10 µg/mL (≈ 1.79 to 17.9 µM); MIC [7]: 1 to 10 µg/mL (≈ 1.79 to 17.9 µM); MIC [8]: 1 to 10 µg/mL (≈ 1.79 to 17.9 µM)
CC(Oc1cc(Oc2ccc(C(F)(F)F)cc2Cl)cc(Oc2ccc(C(F)(F)F)cc2Cl)c1)C(=O)C(C#N)c1ccc(Cl)c(Cl)c1 (stereo not shown) [compound 210]	–	–	–	1 to 10 (≈ 1.38 to 13.8 µM)	≤10 (10-1 µg/ml)	≤10 (10-1 µg/ml)	≤10 (10-1 µg/ml)	≤10 (10-1 µg/ml)	≤10 (10-1 µg/ml)	≤10 (10-1 µg/ml)	≤10 (10-1 µg/ml)	1 to 10 (≈ 1.38 to 13.8 µM)	≤10 (10-1 µg/ml)	≤10 (10-1 µg/ml)	≤10 (10-1 µg/ml)	10 to 100 (≈ 13.8 to 138 µM)	≤100 (MIC-equivalent values obtained at the succesive 2-fold dilution of the sample are 100-10 µg/ml)	≤100 (MIC-equivalent values obtained at the succesive 2-fold dilution of the sample are 100-10 µg/ml)	≤100 (MIC-equivalent values obtained at the succesive 2-fold dilution of the sample are 100-10 µg/ml)	1 to 10 (≈ 1.38 to 13.8 µM)	MIC ([6]; MRSA strain 891185): 1 to 10 µg/mL (≈ 1.38 to 13.8 µM); MIC ([6]; MRSA strain 891187): 1 to 10 µg/mL (≈ 1.38 to 13.8 µM); MIC ([6]; MRSA strain 891192): 1 to 10 µg/mL (≈ 1.38 to 13.8 µM); MIC ([6]; MRSA strain 900048): 1 to 10 µg/mL (≈ 1.38 to 13.8 µM); MIC ([6]; MRSA strain 900056): 1 to 10 µg/mL (≈ 1.38 to 13.8 µM); MIC [7]: 10 to 100 µg/mL (≈ 13.8 to 138 µM); MIC [8]: 1 to 10 µg/mL (≈ 1.38 to 13.8 µM)
CC(Oc1cc(Oc2ccc(C(F)(F)F)cc2Cl)cc(Oc2ccc(C(F)(F)F)cc2Cl)c1)C(=O)C(C#N)c1cccc(Br)c1 (stereo not shown) [compound 211]	–	–	–	1 to 10 (≈ 1.36 to 13.6 µM)	≤10 (10-1 µg/ml)	≤10 (10-1 µg/ml)	≤10 (10-1 µg/ml)	≤10 (10-1 µg/ml)	≤10 (10-1 µg/ml)	≤10 (10-1 µg/ml)	≤10 (10-1 µg/ml)	1 to 10 (≈ 1.36 to 13.6 µM)	≤10 (10-1 µg/ml)	≤10 (10-1 µg/ml)	≤10 (10-1 µg/ml)	10 to 100 (≈ 13.6 to 136 µM)	≤100 (MIC-equivalent values obtained at the succesive 2-fold dilution of the sample are 100-10 µg/ml)	≤100 (MIC-equivalent values obtained at the succesive 2-fold dilution of the sample are 100-10 µg/ml)	≤100 (MIC-equivalent values obtained at the succesive 2-fold dilution of the sample are 100-10 µg/ml)	1 to 10 (≈ 1.36 to 13.6 µM)	MIC ([6]; MRSA strain 891185): 1 to 10 µg/mL (≈ 1.36 to 13.6 µM); MIC ([6]; MRSA strain 891187): 1 to 10 µg/mL (≈ 1.36 to 13.6 µM); MIC ([6]; MRSA strain 891192): 1 to 10 µg/mL (≈ 1.36 to 13.6 µM); MIC ([6]; MRSA strain 900048): 1 to 10 µg/mL (≈ 1.36 to 13.6 µM); MIC ([6]; MRSA strain 900056): 1 to 10 µg/mL (≈ 1.36 to 13.6 µM); MIC [7]: 1 to 10 µg/mL (≈ 1.36 to 13.6 µM); MIC [8]: 1 to 10 µg/mL (≈ 1.36 to 13.6 µM)

The next lines start with results.

MIC [1] [µg/mL]	MIC [3] [µg/mL]	MIC [4] [µg/mL]	SMILES	MIC [5] [µg/mL]	IC (Enterococcus from fish; Enterococcus Seriolicida HI)	IC (Enterococcus from fish; [9])	IC (Enterococcus from fish; [10])	IC (Enterococcus from fish; [11])	IC (Enterococcus from fish; [12])	IC (Enterococcus from fish; [13])	IC (Enterococcus from fish; [14])	MIC (Enterococcus from fish) [µg/mL]	IC (Enterococcus from fish; [15])	IC (Enterococcus from fish; [16])	IC (Enterococcus from fish; [17])	MIC (Pasteurella from fish) [µg/mL]	IC (Pasteurella from fish; Pasteurella piscicida KP94-04)	IC (Pasteurella from fish; Pasteurella piscicida KP94-05)	IC (Pasteurella from fish; Pasteurella piscicida KP94-06)	MIC ([6]; MRSA strain 891179) [µg/mL]	also measured
10 to 100 (≈ 20.4 to 204 µM)	10 to 100 (≈ 20.4 to 204 µM)	10 to 100 (≈ 20.4 to 204 µM)	COc1cccc(C(C#N)C(=O)C(C)Oc2ccc(Oc3ncc(C(F)(F)F)cc3Cl)cc2)c1 (stereo not shown) [compound 17]	–	–	–	–	–	–	–	–	–	–	–	–	–	–	–	–	–	–
1 to 10 (≈ 2.01 to 20.1 µM)	10 to 100 (≈ 20.1 to 201 µM)	10 to 100 (≈ 20.1 to 201 µM)	CC(Oc1ccc(Oc2ncc(Cl)cc2Cl)cc1)C(=O)C(C#N)c1nc(Cl)cc(Cl)n1 (stereo not shown) [compound 20]	–	–	–	–	–	–	–	–	–	–	–	–	–	–	–	–	–	–
1 to 10 (≈ 1.88 to 18.8 µM)	1 to 10 (≈ 1.88 to 18.8 µM)	10 to 100 (≈ 18.8 to 188 µM)	CC(Oc1ccc(Oc2ccc(C(F)(F)F)cc2Cl)cc1)C(=O)C(C#N)c1nc(Cl)cc(Cl)n1 (stereo not shown) [compound 22]	–	–	–	–	–	–	–	–	–	–	–	–	–	–	–	–	–	–
1 to 10 (≈ 2.01 to 20.1 µM)	1 to 10 (≈ 2.01 to 20.1 µM)	10 to 100 (≈ 20.1 to 201 µM)	CC(Oc1ccc(Oc2ncc(C(F)(F)F)cc2Cl)cc1)C(=O)C(C#N)c1ccc(F)c(F)c1 (stereo not shown) [compound 27]	–	–	–	–	–	–	–	–	–	–	–	–	–	–	–	–	–	–
